Read-outs that look alike come from different tables or passages of the source.
Columns and labels:
plasmin = target: T1, plasmin (Homo sapiens, UniProt P00747); assay: Plasmin enzymatic assay (selectivity screening); assay type: biochemical; conditions: for Plasmin Inhibition (%): % Inhibition at 5 μM
T1 construct: uPA, Factor Xa, thrombin, plasmin and trypsin (Sigma, USA); purchased Sigma, USA
Text: (§1) Purified recombinant matriptase was used in a fluorescence-based screening assay using Gln-Ala-Arg peptide as a substrate. In this assay the cleavage of AMC from Boc-Gln-Ala-Arg-7-amido-4 methylcoumarin hydrochloride (Boc-Gln-Ala-Arg-AMC) (Sigma, USA) was monitored by measuring the increase in fluorescence intensity of AMC released upon proteolytic cleavage at 480 nm (kex=360 nm). Similarly, enzymatic assays in fluorimetric or colorimetric format for uPA, Factor Xa, thrombin, plasmin and trypsin (Sigma, USA) were established using substrates pyroGlu-Gly-Arg-pNA.HCl, Boc-Gln-Ala-Arg-AMC, CH3OCO-D-CHA-Gly-Arg-PNA.AcoH, Pyro Glu-Phe-Lys—pNA.HCl and Boc-Gln-Ala-Arg-AMC, respectively.

thrombin = target: T2, thrombin (Homo sapiens, UniProt P00734); assay: Thrombin enzymatic assay (selectivity screening); assay type: biochemical; conditions: for Thrombin Inhibition (%): % Inhibition at 5 μM
T2 construct: uPA, Factor Xa, thrombin, plasmin and trypsin (Sigma, USA); purchased Sigma, USA
Text: as §1

DU145 cells [1] = assay: Cell invasion assay (matrigel transwell); assay type: cell-based; conditions: for inhibition at 10 µM: Homo sapiens, DU-145, 48 hours
Protocol: Cell invasion assays were done for quantitating the degree to which invasive cells penetrate a barrier essentially as in migration assay but with the use of matrigel consisting of basement membrane components in the transwell inserts and incubating for 48 hours. The barrier used was matrigel. This was followed by fixing and staining of the transwell insert with 0.5% crystal violet in 25% methanol in order to visualize cells migrated.

DU145 cells [2] = assay: Cytotoxicity, Calcein AM assay, DU145; assay type: cell-based; conditions: four days of incubation; for viability at 10 µM: Homo sapiens, DU-145, 96 h, read-out: Cell survival at 10 μM (%)
Protocol: Cytotoxicity of the compounds was tested in cell lines or primary cells using Calcein AM assay. This assay measures cell viability by quantitation of cleaved fluorescent product of a cell permeable substrate that is retained in the cytoplasm of cells with uncompromised cytoplasmic membrane integrity. The cells were seeded into 96-well plate and allowed to adhere for a day followed by addition of compound at several different concentrations. After four days of incubation with the compound, media was removed from the cells followed by addition of PBS and addition of Calcein AM reagent at 1 μM final concentration. The cells were then allowed to incubate at 37° C. for half an hour followed by reading on the fluorimeter. Percent viability was calculated based on fluorescence value obtained at 485/520 nm with cut off at 495 nm.

Factor Xa = target: T3, Factor Xa (Homo sapiens, UniProt P00742); assay: Factor Xa enzymatic assay (selectivity screening); assay type: biochemical; conditions: for Factor Xa Inhibition (%): % Inhibition at 5 μM
T3 construct: uPA, Factor Xa, thrombin, plasmin and trypsin (Sigma, USA); purchased Sigma, USA
Text: as §1

uPA = target: T4, uPA (Homo sapiens, UniProt P00749); assay: uPA enzymatic assay (selectivity screening); assay type: biochemical; conditions: for uPA Inhibition (%): % Inhibition at 5 μM
T4 construct: purchased Sigma, USA
Text: as §1

[3] = target: T5, Purified recombinant matriptase (Homo sapiens, UniProt Q9Y5Y6); assay: Matriptase fluorescence-based enzymatic assay (Boc-Gln-Ala-Arg-AMC cleavage); assay type: biochemical
T5 sequence (Q9Y5Y6 1-855): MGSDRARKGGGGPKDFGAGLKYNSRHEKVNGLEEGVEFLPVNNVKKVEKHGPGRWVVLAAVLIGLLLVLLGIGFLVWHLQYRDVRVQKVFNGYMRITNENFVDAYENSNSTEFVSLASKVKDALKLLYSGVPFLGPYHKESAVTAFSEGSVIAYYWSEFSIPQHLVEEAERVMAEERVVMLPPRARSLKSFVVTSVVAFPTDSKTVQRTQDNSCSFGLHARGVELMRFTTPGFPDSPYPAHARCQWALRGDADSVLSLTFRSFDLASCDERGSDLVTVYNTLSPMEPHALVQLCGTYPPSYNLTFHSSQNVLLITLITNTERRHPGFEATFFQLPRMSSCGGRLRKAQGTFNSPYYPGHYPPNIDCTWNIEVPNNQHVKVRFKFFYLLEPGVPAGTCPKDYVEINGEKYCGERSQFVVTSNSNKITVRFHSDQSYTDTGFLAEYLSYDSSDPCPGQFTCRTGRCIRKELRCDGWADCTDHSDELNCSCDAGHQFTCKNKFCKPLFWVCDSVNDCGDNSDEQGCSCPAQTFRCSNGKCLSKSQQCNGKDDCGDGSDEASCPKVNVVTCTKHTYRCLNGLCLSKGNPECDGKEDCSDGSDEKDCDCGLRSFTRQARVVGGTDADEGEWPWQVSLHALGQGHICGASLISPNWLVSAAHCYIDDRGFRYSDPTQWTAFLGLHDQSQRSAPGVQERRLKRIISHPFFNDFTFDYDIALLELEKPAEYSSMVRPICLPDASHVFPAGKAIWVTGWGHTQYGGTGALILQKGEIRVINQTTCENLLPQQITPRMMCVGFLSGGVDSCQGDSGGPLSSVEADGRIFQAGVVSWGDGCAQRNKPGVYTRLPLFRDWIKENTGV
Text: as §1

DU145 cells [4] = assay: Migration assay in transwell chambers; assay type: cell-based; conditions: for inhibition at 10 µM: Homo sapiens, DU-145, 24 hours
Protocol: Migration assays were performed to determine the effect of matriptase inhibitors on cell motility. Cells were seeded with 10 μM test compound into transwell chambers and allowed to migrate for 24 hours using a combination of 10% FBS and 5 μg/ml fibronectin as chemoattractant.

trypsin = assay: Trypsin enzymatic assay (selectivity screening); assay type: biochemical; conditions: % Inhibition at 5 μM
Text: as §1

[5] = Table 1, read-out: Matriptase Inhibition IC50
[6] = Table 2, read-out: Matriptase IC50

T1 sequence (P00747 581-810 limits assumed, species assumed): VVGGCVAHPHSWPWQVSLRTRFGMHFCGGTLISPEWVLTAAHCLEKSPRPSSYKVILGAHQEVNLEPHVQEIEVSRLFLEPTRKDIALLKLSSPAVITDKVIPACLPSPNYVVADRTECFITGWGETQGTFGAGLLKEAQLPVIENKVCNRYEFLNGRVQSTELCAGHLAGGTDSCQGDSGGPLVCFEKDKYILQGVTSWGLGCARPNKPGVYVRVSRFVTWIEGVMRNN
T1 sequence (P00747 97-580 partner limits assumed, species assumed): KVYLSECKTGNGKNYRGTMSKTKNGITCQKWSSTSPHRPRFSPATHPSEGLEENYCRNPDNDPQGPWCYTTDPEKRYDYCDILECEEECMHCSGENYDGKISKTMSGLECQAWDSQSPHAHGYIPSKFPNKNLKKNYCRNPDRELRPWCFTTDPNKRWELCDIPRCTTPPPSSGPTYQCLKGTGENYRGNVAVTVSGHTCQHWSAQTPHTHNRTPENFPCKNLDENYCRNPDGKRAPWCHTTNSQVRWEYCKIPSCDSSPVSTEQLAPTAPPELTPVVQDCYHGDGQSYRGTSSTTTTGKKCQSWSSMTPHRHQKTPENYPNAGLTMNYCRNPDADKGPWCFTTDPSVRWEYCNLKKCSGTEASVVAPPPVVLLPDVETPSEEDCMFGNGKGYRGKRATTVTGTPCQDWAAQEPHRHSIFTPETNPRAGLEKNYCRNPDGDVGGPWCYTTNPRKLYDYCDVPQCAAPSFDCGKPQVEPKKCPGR
T3 sequence (P00742 235-488 limits assumed): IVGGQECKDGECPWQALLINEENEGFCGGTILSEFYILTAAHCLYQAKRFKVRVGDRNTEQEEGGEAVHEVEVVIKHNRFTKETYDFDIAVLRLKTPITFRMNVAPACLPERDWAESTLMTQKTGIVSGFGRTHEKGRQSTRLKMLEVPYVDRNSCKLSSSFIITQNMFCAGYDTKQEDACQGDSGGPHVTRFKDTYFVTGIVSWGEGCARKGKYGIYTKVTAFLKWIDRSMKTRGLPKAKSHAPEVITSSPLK
T3 sequence (P00742 41-179 partner limits assumed): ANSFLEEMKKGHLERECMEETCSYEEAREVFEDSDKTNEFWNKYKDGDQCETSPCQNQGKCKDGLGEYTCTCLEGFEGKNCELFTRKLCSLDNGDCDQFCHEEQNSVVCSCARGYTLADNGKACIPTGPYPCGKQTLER

| Molecule | IC50 [3, 5] | IC50 [3, 6] | inhibition at 5 µM (plasmin) | inhibition at 5 µM (thrombin) | inhibition at 5 µM (Factor Xa) | inhibition at 5 µM (uPA) | Plasmin Inhibition (%) (plasmin) | Thrombin Inhibition (%) (thrombin) | Inhibition of invasion at 10 μM (%) (DU145 cells [1]; 48 hours) | Cell survival at 10 μM (%) (DU145 cells [2]) | Factor Xa Inhibition (%) (Factor Xa) | uPA Inhibition (%) (uPA) | Inhibition of migration at 10 μM (%) (DU145 cells [4]; 24 hours) | Trypsin Inhibition (%) (trypsin) | inhibition at 10 µM (DU145 cells [1]) | viability at 10 µM (DU145 cells [2]) | inhibition at 10 µM (DU145 cells [4]) |
| --- | --- | --- | --- | --- | --- | --- | --- | --- | --- | --- | --- | --- | --- | --- | --- | --- | --- |
| N=C(N)c1ccc(Oc2cc(NC(=O)C3CCN(CCO)CC3)cc(Oc3ccc(C(=N)N)cc3)c2)cc1 [Example 111, 1-(2-Hydroxy-ethyl)-piperidine-4-carboxylic acid[3,5-bis-(4-carbamimidoyl-phenoxy)-phenyl]-amide] | 29 nM |  |  |  |  |  | 46% | 44% |  |  | 74% | 17% |  | 63% |  |  |  |
| N=C(N)c1ccc(Oc2cc(OCc3ccc(CN)cc3)cc(C(=O)NC3CCC(N)CC3)c2)cc1 (stereo not shown) [Example 45, N-(4-Aminocyclohexyl)-3-(4-aminomethylbenzyloxy)-5-(4-carbamimidoylphenoxy)benzamide] | 48 nM |  | 21% | -12% | 47% | 6% |  |  |  |  |  |  |  |  |  |  |  |
| N=C(N)CCCCOc1cc(Oc2ccc(C(=N)N)cc2)cc(C(=O)NC2CCC(N)CC2)c1 (stereo not shown) [Example 65, N-(4-Aminocyclohexyl)-3-(4-carbamimidoylbutoxy)-5-(4-carbamimidoyl-phenoxy)-benzamide] | 16.8 nM | 16 nM | 5% | 27% | 63% | 4% |  |  |  |  |  |  |  |  | 88% | 96% | 7% |
| 2-[3,5-Bis-(4-carbanimidoyl-phenoxy)-benzoyl]-nonahydro-isoquinoline [Example 37] | 479 nM |  |  |  |  |  | 65% | 74% |  |  | 67% | 13% |  | 84% |  |  |  |
| N=C(N)c1ccc(Oc2cc(Oc3ccc(C(=N)N)cc3)cc(C(=O)N3CCN(CCN)CC3)c2)cc1 [Example 31, 2-{4-[3,5-Bis-(4-carbamimidoyl-phenoxy)-benzoyl]-piperazin-1-yl}-ethylamine] | 88 nM |  | 40% | 61% | 94% | 5% |  |  |  |  |  |  |  |  |  |  |  |
| N=C(N)c1ccc(Oc2cc(OCc3cccc(C(=N)N)c3)cc(C(=O)N3CCC(CCN)CC3)c2)cc1 [Example 57, 2-{1-[3-(3-Carbamimidoyl-benzyloxy)-5-(4-carbamimidoyl-phenoxy)-benzoyl]-piperidin-4-yl}-ethylamine] | 29 nM |  | 50% | 57% | 94% | 10% |  |  |  |  |  |  |  | 74% |  |  |  |
| N=C(N)c1cccc(COc2cc(OCc3cccc(C(=N)N)c3)cc(C(=O)NC3CCC(N)CC3)c2)c1 (stereo not shown) [Example 77, N-(4-Aminocyclohexyl)-3,5-bis-(3-carbamimidoyl Benzyloxy)benzamide] | 5 nM |  | 22% | 76% | 96% | 11% |  |  |  |  |  |  |  |  |  |  |  |

More lines, main results first:

| IC50 [3, 5] | IC50 [3, 6] | inhibition at 5 µM (plasmin) | inhibition at 5 µM (thrombin) | inhibition at 5 µM (Factor Xa) | inhibition at 5 µM (uPA) | Molecule | Plasmin Inhibition (%) (plasmin) | Thrombin Inhibition (%) (thrombin) | Inhibition of invasion at 10 μM (%) (DU145 cells [1]; 48 hours) | Cell survival at 10 μM (%) (DU145 cells [2]) | Factor Xa Inhibition (%) (Factor Xa) | uPA Inhibition (%) (uPA) | Inhibition of migration at 10 μM (%) (DU145 cells [4]; 24 hours) | Trypsin Inhibition (%) (trypsin) | inhibition at 10 µM (DU145 cells [1]) | viability at 10 µM (DU145 cells [2]) | inhibition at 10 µM (DU145 cells [4]) |
| --- | --- | --- | --- | --- | --- | --- | --- | --- | --- | --- | --- | --- | --- | --- | --- | --- | --- |
| 313 nM | 312 nM |  |  |  |  | 1-[3,5-Bis-(4-carbanimidoyl-phenoxy)-benzoyl]-nonahydro-quinoline [Example 35] | 69% | 67% | 75% | 78% | 69% | 10% | 18% |  |  |  |  |
| 18.9 nM |  | 22% | 26% | 81% | 9% | N=C(N)c1ccc(Oc2cc(Oc3ccc(C(=N)N)cc3Cl)cc(C(=O)NC3CCC(N)CC3)c2)cc1 (stereo not shown) [Example 69, N-(4-Aminocyclohexyl)-3-(4-carbamimidoyl-2-chlorophenoxy)-5-(4-carbamimidoylphenoxy)benzamide] |  |  |  |  |  |  |  |  |  |  |  |
| 2 nM |  | 58% | 44% | 92% | 25% | N=C(N)c1ccc(Oc2cc(Oc3ccc(C(=N)N)cc3)cc(C(=O)OC3CCC(N)CC3)c2)cc1 (stereo not shown) [Example 103, 3,5-Bis-(4-carbamimidoyl-phenoxy)-benzoic acid 4-amino-cyclohexyl Ester] |  |  |  |  |  |  |  | 92% |  |  |  |
| 16.1 nM | 16 nM | 5% | 21% | 43% | 3% | N=C(N)CCCCCOc1cc(Oc2ccc(C(=N)N)cc2)cc(C(=O)NC2CCC(N)CC2)c1 (stereo not shown) [Example 66, N-(4-Aminocyclohexyl)-3-(5-carbamimidoylpentyloxy)-5-(4-carbamimidoyl-phenoxy)-benzamide] |  |  |  |  |  |  |  |  | 95% | 87% | 88% |
| 7 nM |  |  |  |  |  | N=C(N)c1cccc(COc2cc(NC(=O)C3CCC(N)CC3)cc(OCc3cccc(C(=N)N)c3)c2)c1 (stereo not shown) [Example 119, 4-Amino-cyclohexanecarboxylic acid[3,5-bis-(3-carbamimidoyl-benzyloxy)-phenyl]-amide] | 30% | 47% |  |  | 97% | 14% |  | 77% |  |  |  |
|  | 158 nM |  |  |  |  | N=C(N)c1cc(F)c(Oc2cc(Oc3ccc(CN)cc3)cc(C(=O)NC3CCC(N)CC3)c2)c(F)c1 (stereo not shown) [Example 87, N-(4-Amino-cyclohexyl)-3-(4-aminomethyl-phenoxy)-5-(4-carbamimidoyl-2,6-difluoro-phenoxy)-benzamide] |  |  |  |  |  |  |  |  | 88% | 113% | 47% |
| 63.4 nM | 63 nM | 10% | 36% | 5% | 5% | N=C(N)c1ccc(Oc2cc(Oc3ccc(CN)cc3)cc(C(=O)NC3CCC(N)CC3)c2)cc1 (stereo not shown) [Example 84, N-(4-Aminocyclohexyl)-3-(4-aminomethylphenoxy)-5-(4-carbamimidoylphenoxy)benzamide] |  |  |  |  |  |  |  |  | 92% | 100% | 80% |
| 16 nM |  | 33% | 45% | 76% | 7% | N=C(N)c1ccc(COc2cc(Oc3ccc(C(=N)N)cc3)cc(C(=O)NC3CCC(N)CC3)c2)cc1 (stereo not shown) [Example 43, N-(4-Aminocyclohexyl)-3-(4-carbamimidoylbenzyloxy)-5-(4-carbamimidoylphenoxy)benzamide] |  |  |  |  |  |  |  |  |  |  |  |
| 10 nM |  | 30% | 36% | 93% | 11% | N=C(N)c1ccc(Oc2cc(OCc3cccc(C(=N)N)c3)cc(C(=O)NC3CCC(N)CC3)c2)cc1 (stereo not shown) [Example 42, N-(4-Aminocyclohexyl)-3-(3-carbamimidoylbenzyloxy)-5-(4-carbamimidoylphenoxy)benzamide] |  |  |  |  |  |  |  |  |  |  |  |

From patent US8722930B2, “Protease inhibitors” (Orion Corporation, priority 2009, dated 2014)
